This passage reports IC50 results from patent US20260176265A1 (Cancer Research Technology Limited, priority 2022, published 2026).

Structures are written as SMILES.

Test [1] deals with T1, Phospho-EGFR (Tyr1068) in H1975 cells (Homo sapiens, UniProt P00533, L858R/T790M).
T1 construct: host or cells: H1975
In words: HTRF pEGFR/total EGFR assay in H1975 cells. The settings on record: compound 3 hours, ratio pEGFR/total EGFR. Type of test: cell-based. The procedure:
H1975 cells (ATCC CRL-5908) were plated at 20,000 cells per well in 96 well plates and placed at 37° C. 5% CO2. Once adhered (after 24h) cells were treated with compounds dissolved in DMSO at a final concentration of 0.1% DMSO in media. Compounds were diluted in media then added to cells for 3 hours in duplicate. Compound and media were removed from the cells, then 50ul of HTRF lysis buffer is added (lysis buffer was diluted from 4× stock to 1× in DI water, with 1% blocking agent also added). Cells were lysed on a plate shaker (2000 rpm) for 30 minutes at room temperature. pEGFR expression was monitored using the Cisbio Phospho-EGFR (Tyri068) cellular kit (64EG1 PEH). Total EGFR expression was monitored using the Cisbio Total EGFR cellular kit (64NG1 PEH) as per manufacturer's instructions. Fluorescence emission was read at two different wavelengths (665 nm and 620 nm) on a PheraStar. Results were calculated as ratio of pEGFR/total EGFR and then percentage of 0 uM control.
For orientation: TR-FRET usually uses a lanthanide donor and a delayed reading to cut background.

The target in test [2] is T2, Phospho-EGFR (Tyr1068) in H1975 C797S cells (Homo sapiens, UniProt P00533, C797S/L858R/T790M).
T2 construct: endogenous in cells; host or cells: H1975 C797S (CRISPR-edited in house from ATCC CRL-5908)
T2 sequence (P00533 25-1210 T790M/C797S/L858R): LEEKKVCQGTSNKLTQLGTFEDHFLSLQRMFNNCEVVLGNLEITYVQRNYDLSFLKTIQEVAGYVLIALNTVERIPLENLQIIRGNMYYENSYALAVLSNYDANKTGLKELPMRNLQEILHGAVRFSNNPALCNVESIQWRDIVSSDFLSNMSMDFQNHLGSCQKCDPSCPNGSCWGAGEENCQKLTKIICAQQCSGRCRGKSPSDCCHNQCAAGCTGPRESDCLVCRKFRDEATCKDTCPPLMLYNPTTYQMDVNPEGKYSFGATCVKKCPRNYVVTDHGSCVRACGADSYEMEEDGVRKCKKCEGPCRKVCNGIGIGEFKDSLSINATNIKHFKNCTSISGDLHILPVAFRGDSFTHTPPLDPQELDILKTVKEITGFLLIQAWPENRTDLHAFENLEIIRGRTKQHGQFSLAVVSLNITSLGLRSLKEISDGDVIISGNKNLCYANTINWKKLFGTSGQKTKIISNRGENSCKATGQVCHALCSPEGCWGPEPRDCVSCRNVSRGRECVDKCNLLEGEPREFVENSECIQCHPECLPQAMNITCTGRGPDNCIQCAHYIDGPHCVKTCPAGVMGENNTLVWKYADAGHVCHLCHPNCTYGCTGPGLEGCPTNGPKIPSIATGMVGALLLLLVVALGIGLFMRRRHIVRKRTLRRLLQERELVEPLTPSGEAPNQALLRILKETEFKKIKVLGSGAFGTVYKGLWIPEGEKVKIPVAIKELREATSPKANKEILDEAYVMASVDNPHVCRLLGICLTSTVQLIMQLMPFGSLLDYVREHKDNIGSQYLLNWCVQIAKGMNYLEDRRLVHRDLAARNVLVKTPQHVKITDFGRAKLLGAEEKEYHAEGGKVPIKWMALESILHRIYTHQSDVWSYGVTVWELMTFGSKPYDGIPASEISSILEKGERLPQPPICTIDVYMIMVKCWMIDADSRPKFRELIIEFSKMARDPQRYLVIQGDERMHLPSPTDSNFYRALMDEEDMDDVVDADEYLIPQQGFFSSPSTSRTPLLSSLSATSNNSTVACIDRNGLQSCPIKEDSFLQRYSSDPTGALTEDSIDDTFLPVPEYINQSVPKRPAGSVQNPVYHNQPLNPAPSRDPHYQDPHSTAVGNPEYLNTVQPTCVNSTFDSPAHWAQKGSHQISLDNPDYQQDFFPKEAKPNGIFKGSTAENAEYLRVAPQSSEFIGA
Briefly: HTRF pEGFR/total EGFR assay in H1975 C797S cells. Particulars: H1975 C797S cells (CRISPR), compound 3 hours, ratio pEGFR/total EGFR. The class given is cell-based. Here is the method:
H1975 C797S cells (ATCC CRL-5908) were genetically engineered by CRISPR editing of EGFR C797S in house and validated by NGS. Cells were plated at 20,000 cells per well in 96 well plates and placed at 37° C. 5% CO2. Once adhered (after 24h) cells were treated with compounds dissolved in DMSO at a final concentration of 0.1% DMSO in media. Compounds were diluted in media then added to cells for 3 hours in duplicate. Compound and media were removed from the cells, then 50 ul of HTRF lysis buffer was added (lysis buffer was diluted from 4× stock to 1× in DI water, with 1% blocking agent also added). Cells were lysed on a plate shaker (2000 rpm) for 30 minutes at room temperature. pEGFR expression was monitored using the Cisbio Phospho-EGFR (Tyr1068) cellular kit (64EG1PEH). Total EGFR expression was monitored using the Cisbio Total EGFR cellular kit (64NG1PEH) as per manufacturer's instructions. Fluorescence emission was read at two different wavelengths (665 nm and 620 nm) on a PheraStar. Results were calculated as ratio of pEGFR/total EGFR and then percentage of 0 uM control.

In test [3] the target is CtermHisTag-mEGFR Triple Mutant - C797S, L858R, T790M (Homo sapiens, UniProt P00533, C797S/L858R/T790M). In words: TR-FRET probe displacement assay, EGFR triple mutant. The settings on record: T790M 1.25 nM, probe 100 nM, 30 mins room temperature. The class given is binding. The procedure: (§1) Compounds (dissolved to 100 mM in DMSO) were dispensed into black low volume 384 well assay plates (Corning) over a final concentration range of 100000, 30000, 10000, 3000, 1000, 300, 100, 30, 10, and 3 nM using an Echo 550 (Labcyte). Positive control compound and DMSO as a negative control were dispensed into the first and last well, respectively. […]. Plates were read using a PheraStar FS (BMG Labtech) at Ex337 nm Ex490/520 nm. The data were analysed using Graphpad Prism/Dotmatics Studies Software. Assays conducted in technical replicate and repeated as a biological duplicate.
CtermHisTag-mEGFR Triple Mutant - C797S, L858R, T790M, sequence (P00533 25-1210 T790M/C797S/L858R): as above

Test [4] has as its target CtermHisTag-mEGFR Wild type (Homo sapiens, UniProt P00533). Briefly: TR-FRET probe displacement assay, EGFR wild type. The class given is binding. Particulars: EGFR wild type 1.25 nM, probe 100 nM, 30 mins room temperature. Here is the method:
as §1

Test [5] addresses T3, Phospho-EGFR (Tyr1068) in A431 cells (Homo sapiens, UniProt P00533).
T3 construct: endogenous in cells; host or cells: A431
Briefly: HTRF pEGFR/total EGFR assay in A431 cells (EGF stimulated). Particulars: compound 2.5 hours then 100 ng/ml EGF 30 mins, ratio pEGFR/total EGFR. The class given is cell-based. The procedure: Cells were plated at 20,000 cells per well in 96 well plates and placed at 37° C. 5% CO2. Once adhered (after 24h) cells were treated with compounds dissolved in DMSO at a final concentration of 0.1% DMSO in media. Compounds were diluted in media then added to cells for 2.5 hours in duplicate, 100 ng/ml EGF (ThermoFisher, PHG0311 was is added to all compound treated cells as well as a control for 30 mins. Compound and media were removed from the cells, then 50ul of HTRF lysis bufferwas added (lysis bufferwas diluted from 4× stock to 1× in DI water, with 1% blocking agent also added). Cells were lysed on a plate shaker (2000 rpm) for 30 minutes at room temperature. pEGFR expression was monitored using the Cisbio Phospho-EGFR (Tyr1068) cellular kit (64EG1PEH). Total EGFR expression was monitored using the Cisbio Total EGFR cellular kit (64NG1PEH) as per manufacturer's instructions. Fluorescence emission was read at two different wavelengths (665 nm and 620 nm) on a PheraStar. Results were calculated as ratio of pEGFR/total EGFR and then percentage of OuM control.

CtermHisTag-mEGFR Wild type, sequence (P00533 25-1210): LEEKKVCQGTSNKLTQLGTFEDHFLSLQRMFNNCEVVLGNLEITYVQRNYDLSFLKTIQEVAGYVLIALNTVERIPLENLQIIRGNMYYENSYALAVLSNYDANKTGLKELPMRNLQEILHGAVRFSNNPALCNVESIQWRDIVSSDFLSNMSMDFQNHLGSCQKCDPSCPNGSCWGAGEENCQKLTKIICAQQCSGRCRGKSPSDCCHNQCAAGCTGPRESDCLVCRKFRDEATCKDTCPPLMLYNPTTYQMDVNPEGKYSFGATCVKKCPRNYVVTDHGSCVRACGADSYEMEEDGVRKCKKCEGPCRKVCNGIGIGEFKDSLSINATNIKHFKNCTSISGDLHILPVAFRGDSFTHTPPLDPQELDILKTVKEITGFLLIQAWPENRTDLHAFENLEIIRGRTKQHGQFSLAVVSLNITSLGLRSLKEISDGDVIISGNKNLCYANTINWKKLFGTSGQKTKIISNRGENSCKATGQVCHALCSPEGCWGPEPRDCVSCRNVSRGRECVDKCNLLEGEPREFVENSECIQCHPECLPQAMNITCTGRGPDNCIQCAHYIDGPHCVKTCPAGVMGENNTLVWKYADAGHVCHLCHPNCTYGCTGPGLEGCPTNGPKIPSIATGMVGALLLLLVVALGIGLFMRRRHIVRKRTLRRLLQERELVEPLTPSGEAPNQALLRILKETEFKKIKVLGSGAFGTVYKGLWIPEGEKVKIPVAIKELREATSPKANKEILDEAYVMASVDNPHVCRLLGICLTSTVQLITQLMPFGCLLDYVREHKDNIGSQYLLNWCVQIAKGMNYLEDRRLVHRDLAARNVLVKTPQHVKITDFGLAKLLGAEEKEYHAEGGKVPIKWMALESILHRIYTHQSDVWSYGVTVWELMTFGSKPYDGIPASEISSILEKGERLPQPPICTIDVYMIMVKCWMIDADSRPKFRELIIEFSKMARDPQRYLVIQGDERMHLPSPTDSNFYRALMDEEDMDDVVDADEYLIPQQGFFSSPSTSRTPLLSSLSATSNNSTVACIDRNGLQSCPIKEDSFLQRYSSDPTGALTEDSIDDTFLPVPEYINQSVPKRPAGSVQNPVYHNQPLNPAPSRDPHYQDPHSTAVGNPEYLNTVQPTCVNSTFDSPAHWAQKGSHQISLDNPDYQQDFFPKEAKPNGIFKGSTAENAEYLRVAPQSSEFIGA
T3 sequence (P00533 25-1210): as above

In general, IC50 refers to the concentration that inhibits the measured activity by half. With `C#Cc1cc(N2C(=O)NCC23CCCC3)nc2nc(Nc3ccc(N4CCOCC4)cc3)ncc12` [Example 91, 1-(5-Ethynyl-2-{[4-(morpholin-4-yl)phenyl]amino}pyrido[2,3-d]pyrimidin-7-yl)-1,3-diazaspiro[4.4]nonan-2-one], the IC50 was 0.5 to 1 µM in test [1]; 1 to 3 µM in test [2]; less than 0.02 µM in test [3]; less than 1 µM in test [4]; 1 to 3 µM in test [5].
For `C#Cc1cc(NC(=O)NCc2ccnn2C)nc2nc(Nc3ccc(N4CCN(C)CC4)cc3)ncc12` [Example 48, 1-(5-ethynyl-2-{[4-(4-methylpiperazin-1-yl)phenyl]amino}pyrido[2,3-d]pyrimidin-7-yl)-3-[(2-methylpyrazol-3-yl)methyl]urea], the IC50 in test [1] was less than 0.5 µM; in test [2] it was less than 0.5 µM; in test [3] it was less than 0.02 µM; in test [4] it was less than 1 µM; in test [5] it was more than 3 µM.
In the case of `C#Cc1cc(NC(=O)NC2(C(F)(F)F)CCCC2)nc2nc(Nc3ccc(N4CCN(C)CC4)cc3)ncc12` [Example 60, 1-(5-ethynyl-2-((4-(4-methylpiperazin-1-yl)phenyl)amino)pyrido[2,3-d]pyrimidin-7-yl)-3-(1-(trifluoromethyl)cyclopentyl)urea], the IC50 in test [1] was less than 0.5 µM; in test [2], less than 0.5 µM; in test [3] it was less than 0.02 µM; in test [4] it was less than 1 µM; in test [5], less than 0.5 µM.
As to `C#Cc1cc(NC(=O)NCC2COC2)nc2nc(Nc3ccc(N4CCN(C)CC4)cc3)ncc12` [Example 55, 1-(5-ethynyl-2-{[4-(4-methylpiperazin-1-yl)phenyl]amino}pyrido[2,3-d]pyrimidin-7-yl)-3-(oxetan-3-ylmethyl)urea], the half-inhibitory concentration (IC50) is less than 0.5 µM in test [1]; less than 0.5 µM in test [2]; less than 0.02 µM in test [3]; less than 1 µM in test [4]; more than 3 µM in test [5].
For the molecule `C#Cc1cc(OCCCc2ccccc2)nc2nc(Nc3ccc(N4CCN(C)CC4)cc3)ncc12` [Example 22, 5-ethynyl-N-[4-(4-methylpiperazin-1-yl)phenyl]-7-(3-phenylpropoxy)pyrido[2,3-d]pyrimidin-2-amine], the IC50 in test [1] is more than 3 µM; in test [2], more than 3 µM; in test [3], 0.1 to 1 µM; in test [4] it was more than 10 µM; in test [5], more than 3 µM.
`C#Cc1cc(OC)nc2nc(Nc3ccc(N4CCN(C)CC4)c(N(C)C)c3)ncc12` [Example 5, N^3-{5-ethynyl-7-methoxypyrido[2,3-d]pyrimidin-2-yl}-N^1,N^1-dimethyl-6-(4-methylpiperazin-1-yl)benzene-1,3-diamine]: the IC50 in test [1] was more than 3 µM; in test [2], more than 3 µM; in test [3] it was 0.1 to 1 µM; in test [4] it was more than 10 µM; in test [5], more than 3 µM.
As for `C#Cc1cc(N2C(=O)OCC2C2CCCC2)nc2nc(Nc3ccc(N4CCNCC4)cc3)ncc12` (stereo not shown) [Example 115, 4-Cyclopentyl-3-(5-ethynyl-2-{[4-(piperazin-1-yl)phenyl]amino}pyrido[2,3-d]pyrimidin-7-y0)-1,3-oxazolidin-2-one], the IC50 is 0.5 to 1 µM in test [1]; more than 3 µM in test [2]; less than 0.02 µM in test [3]; 1 to 10 µM in test [4]; more than 3 µM in test [5].
As to `C#Cc1cc(N2C(=O)OCC23CCCC3)nc2nc(Nc3ccc(N4CCN(C)CC4)cc3)ncc12` [Example 114, 1-(5-Ethynyl-2-{[4-(4-methylpiperazin-1-yl)phenyl]amino}pyrido[2,3-d]pyrimidin-7-yl)-3-oxa-1-azaspiro[4.4]nonan-2-one], the IC50 in test [1] was less than 0.5 µM; in test [2], 0.5 to 1 µM; in test [3], less than 0.02 µM; in test [4] it was less than 1 µM; in test [5], 1 to 3 µM.
As to `C#Cc1cc(Nc2nccn2C)nc2nc(Nc3ccc(N4CCN(C)CC4)cc3)ncc12` [Example 26, 5-ethynyl-N^7-(1-methylmidazol-2-yl)-N^2-[4-(4-methylpiperazin-1-yl)phenyl]pyrido[2,3-d]pyrimidine-2,7-diamine], the IC50 in test [1] was 0.5 to 1 µM; in test [2], 1 to 3 µM; in test [3] it was 0.02 to 0.1 µM; in test [4], 1 to 10 µM; in test [5], more than 3 µM.
Consider `C#Cc1cc(NC(=O)NC2CCCC2)nc2nc(Nc3ccc(N(C)C(=O)CN4CCC4)cc3)ncc12` [Example 78, 2-(Azetidin-1-yl)-N-[4-((7-[(cyclopentylcarbamoyl)amino]-5-ethynyl)pyrido[2,3-d]pyrimidin-2-ylamino)phenyl]-N-methylacetamide], for which the IC50 was more than 3 µM in test [1]; more than 3 µM in test [2]; 0.1 to 1 µM in test [3]; 1 to 10 µM in test [4]; more than 3 µM in test [5].
Take `C#Cc1cc(N2C(=O)NCC23CCCC3)nc2nc(Nc3ccc(S(=O)(=O)N(C)CCN(C)C)cc3)ncc12` [Example 98, N-[2-(dimethylamino)ethyl]-4-[(5-ethynyl-7-{2-oxo-1,3-diazaspiro[4.4]nonan-1-yl}pyrido[2,3-d]pyrimidin-2-yl)amino]-N-methylbenzenesulfonamide]: the IC50 in test [1] was more than 3 µM; in test [2], more than 3 µM; in test [3] it was 0.02 to 0.1 µM; in test [4], less than 1 µM; in test [5], 1 to 3 µM.
`C#Cc1cc(-n2cccc2)nc2nc(Nc3ccc(N4CCN(C)CC4)cc3)ncc12` [Example 36, 5-ethynyl-N-[4-(4-methylpiperazin-1-yl)phenyl]-7-(pyrrol-1-yl)pyrido[2,3-d]pyrimidin-2-amine]: the IC50 in test [1] is 1 to 3 µM; in test [2], more than 3 µM; in test [3], less than 0.02 µM; in test [4], 1 to 10 µM; in test [5], more than 3 µM.
In the case of `C#Cc1cc(NC(=O)OCc2ccccc2)nc2nc(Nc3ccc(N4CCN(C)CC4)cc3)ncc12` [Example 67, benzyl (5-ethynyl-2-((4-(4-methylpiperazin-1-yl)phenyl)amino)pyrido[2,3-d]pyrimidin-7-yl)carbamate], the IC50 in test [1] is more than 3 µM; in test [2], more than 3 µM; in test [3] it was 1 to 50 µM; in test [4], more than 10 µM; in test [5], more than 3 µM.
As to `C#Cc1cc(N2C(=O)NC[C@@H]2C(C)C)nc2nc(Nc3ccc(N4CCN(C)CC4)cc3)ncc12` [Example 99, (5S)-1-(5-Ethynyl-2-{[4-(4-methylpiperazin-1-yl)phenyl]amino}pyrido[2,3-d]pyrimidin-7-yl)-5-isopropylmidazolidin-2-one], the IC50 was less than 0.5 µM in test [1]; less than 0.5 µM in test [2]; less than 0.02 µM in test [3]; less than 1 µM in test [4]; more than 3 µM in test [5].
